Consider three compounds from patent publication US4997834A, “Trans-4-amino(alkyl)-1-pyridylcarbamoylcyclohexane compounds and pharmaceutical use thereof” (priority 1988, dated 1991).

In one data set the test system is left coronary artery. In words: Effect on coronary blood flow (perfused left coronary artery, anesthetized dogs). The format is in vivo, adult mongrel dogs. As to conditions: pentobarbital-anesthetized; for Effect of coronary blood flow, ED50 (in artery): dose increasing coronary blood flow by half of the effect of 3 μg intracoronary nifedipine, test dose 10-300 μg into coronary artery; for Effect of coronary blood flow, T1/2 (duration of effects): injection into coronary artery, 10-300 μg. The method, then:
PHARMACOLOGICAL EXPERIMENT 2: EFFECT ON CORONARY BLOOD FLOW
Groups of 2 to 3 adult mongrel dogs were anesthetized with the intraveneous administration of 30 mg/kg of body weight of sodium pentobarbital.
According to the method of Yago et. al. described in Folia Pharmacologica Japonica, vol. 57, p.380 (1961), the left coronary artery was perfused and its blood flow volume was measured. Test compound was injected into the coronary artery at a […] of 10-300 μg. The effects of test compound on coronary blood flow were expressed as ED50 (μg), a dose required to increase the coronary blood flow by a half of the effects of the coronary-artery injection of 3 μg of nifedipine [Dimethyl 2,6-dimethyl-4-(2-nitrophenyl)-1,4-dihydropyridine-3,5-dicarboxylate]. Each of half-life (T 1/2, minute) was measured as the duration of effects.

A further data set has as its system ddY strain mice. In words: Acute toxicity, intraperitoneal, mice. The format is in vivo. An excerpt: EXPERIMENT OF ACUTE TOXICITY
Each of test compounds of A, B and C was intraperitoneally administered to ddY strain mice.

The test system of the next data set is right vertebral artery. In words: Effect on vertebral blood flow (perfused right vertebral artery, anesthetized dogs). The format is in vivo, adult mongrel dogs. Particulars: doses 10-100 μg (A); for Effect of vertebral blood flow, ED100: dose giving 100% of the maximum blood flow increase by 100 μg papaverine hydrochloride, 30-100 μg (B, C) into vertebral artery; for Effect of vertebral blood flow, T1/2 (duration of the effects): injection into vertebral artery, 30-100 μg (B, C). The method, then: PHARMACOLOGICAL EXPERIMENT 3: EFFECT ON VERTEBRAL BLOOD FLOW
Groups of two adult mongrel dogs were anesthetized with the intraveneous administration of 25 mg/kg of body weight of sodium pentobarbital.
The right vertebral artery was perfused and the blood flow volume was measured. Test compound was injected in the vertebral artery. The percentage of maximum increase of blood flow by the injection of 100 μg of papaverine hydrochloride (1-[(3,4-dimethoxyphenyl)methyl]-6,7-dimethoxyisoquinoline hydrochloride) in vertebral artery was taken as 100% . The effects of test compound on vertebral artery were expressed as ED100 (μg), a dose required to obtain 100% of the increase of blood flow. Each of half-life (T 1/2, minute) was measured as the duration of the effects.

The subject of data set [1] is spontaneously hypertensive rats. Kind of data set: Antihypertensive effect: systolic blood pressure by tail cuff method in spontaneously hypertensive rats. The format is in vivo, male spontaneously hypertensive rats. As to conditions: 30 mg/kg orally, measured three hours after administration. The method, then: PHARMACOLOGICAL EXPERIMENT 1: ANTIHYPERTENSIVE EFFECT
Each of 30 mg/kg of test compounds dissolving in 0.5% of hydroxypropyl-methylcellurose was orally administered to groups of 3 to 5 male spontaneously hypertensive rats weighing 350-450 g. Three hours after the administration, the systolic blood pressure was measured by tail cuff method and antihypertensive effects are examined.

The mark [2] stands for this setting: intraperitoneal dose of 100 mg/kg, five days after administration.

`NC[C@H]1CC[C@H](C(=O)Nc2ccncc2)CC1` [Test Compound A, Trans-4-aminomethyl-1-(4-pyridylcarbamoyl)cyclohexane]: in the data set on left coronary artery, the “Effect of coronary blood flow, ED50 (in artery)” value (“Effect … (in artery)” for short) turned out to be 56 µg and the “Effect of coronary blood flow, T1/2 (duration of effects)” value (shortened to “Effect … (duration of effects)”) came out at 1.7 min. Further, in the data set with ddY strain mice (setting [2]), the Survival of mice result was “All mice survived”. In addition, in the data set with right vertebral artery, the “Effect of vertebral blood flow, ED100” value was 35 µg and the “Effect of vertebral blood flow, T1/2 (duration of the effects)” value (from here on “Effect … (duration of the effects)”) is 2.1 min.

For `C[C@H]1C[C@H](CN)CC[C@H]1C(=O)Nc1ccncc1` (relative stereo) [Test Compound B, Trans-4-aminomethyl-cis-2-methyl-1-(4-pyridylcarbamoyl)cyclohexane], in the data set on left coronary artery, the “Effect … (in artery)” value came out at 35 µg and the “Effect … (duration of effects)” value was 4.0 min. For the same compound, the Survival of mice result in the data set on ddY strain mice (setting [2]) is “All mice survived”. Besides, in the data set with right vertebral artery, the “Effect of vertebral blood flow, ED100” value worked out at 74 µg and the “Effect … (duration of the effects)” value was 4.4 min. In addition, in data set [1], the “Maximum lowering value of systolic blood pressure” value is recorded as -44 mmHg.

Regarding `CC(N)[C@H]1CC[C@H](C(=O)Nc2ccncc2)CC1` (relative stereo) [Test Compound C, Trans-4-(1-aminoethyl)-1-(4-pyridylcarbamoyl)cyclohexane], in the data set with left coronary artery, the “Effect … (in artery)” value was 34 µg and the “Effect … (duration of effects)” value stood at 3.0 min. The Survival of mice entry in the data set on ddY strain mice (mouse, in vivo, ip, 100 mg/kg) is recorded as “All mice survived”. For the same compound, in the data set on right vertebral artery, the “Effect of vertebral blood flow, ED100” value worked out at 58 µg and the “Effect … (duration of the effects)” value came to 3.0 min. The “Maximum lowering value of systolic blood pressure” value in data set [1] was -52 mmHg.
